# pIC50: −log10 of the molar value.
# Target: ATM (Homo sapiens (Human), UniProt Q13315)
# Experiment: biochemical
# Assay type: biochemical
# Settings: not given
# Text: Assay a): ATM Biochemical Potency
# Data was collected by Caliper.
# Chain of ATM (Q13315 whole entry, looked up): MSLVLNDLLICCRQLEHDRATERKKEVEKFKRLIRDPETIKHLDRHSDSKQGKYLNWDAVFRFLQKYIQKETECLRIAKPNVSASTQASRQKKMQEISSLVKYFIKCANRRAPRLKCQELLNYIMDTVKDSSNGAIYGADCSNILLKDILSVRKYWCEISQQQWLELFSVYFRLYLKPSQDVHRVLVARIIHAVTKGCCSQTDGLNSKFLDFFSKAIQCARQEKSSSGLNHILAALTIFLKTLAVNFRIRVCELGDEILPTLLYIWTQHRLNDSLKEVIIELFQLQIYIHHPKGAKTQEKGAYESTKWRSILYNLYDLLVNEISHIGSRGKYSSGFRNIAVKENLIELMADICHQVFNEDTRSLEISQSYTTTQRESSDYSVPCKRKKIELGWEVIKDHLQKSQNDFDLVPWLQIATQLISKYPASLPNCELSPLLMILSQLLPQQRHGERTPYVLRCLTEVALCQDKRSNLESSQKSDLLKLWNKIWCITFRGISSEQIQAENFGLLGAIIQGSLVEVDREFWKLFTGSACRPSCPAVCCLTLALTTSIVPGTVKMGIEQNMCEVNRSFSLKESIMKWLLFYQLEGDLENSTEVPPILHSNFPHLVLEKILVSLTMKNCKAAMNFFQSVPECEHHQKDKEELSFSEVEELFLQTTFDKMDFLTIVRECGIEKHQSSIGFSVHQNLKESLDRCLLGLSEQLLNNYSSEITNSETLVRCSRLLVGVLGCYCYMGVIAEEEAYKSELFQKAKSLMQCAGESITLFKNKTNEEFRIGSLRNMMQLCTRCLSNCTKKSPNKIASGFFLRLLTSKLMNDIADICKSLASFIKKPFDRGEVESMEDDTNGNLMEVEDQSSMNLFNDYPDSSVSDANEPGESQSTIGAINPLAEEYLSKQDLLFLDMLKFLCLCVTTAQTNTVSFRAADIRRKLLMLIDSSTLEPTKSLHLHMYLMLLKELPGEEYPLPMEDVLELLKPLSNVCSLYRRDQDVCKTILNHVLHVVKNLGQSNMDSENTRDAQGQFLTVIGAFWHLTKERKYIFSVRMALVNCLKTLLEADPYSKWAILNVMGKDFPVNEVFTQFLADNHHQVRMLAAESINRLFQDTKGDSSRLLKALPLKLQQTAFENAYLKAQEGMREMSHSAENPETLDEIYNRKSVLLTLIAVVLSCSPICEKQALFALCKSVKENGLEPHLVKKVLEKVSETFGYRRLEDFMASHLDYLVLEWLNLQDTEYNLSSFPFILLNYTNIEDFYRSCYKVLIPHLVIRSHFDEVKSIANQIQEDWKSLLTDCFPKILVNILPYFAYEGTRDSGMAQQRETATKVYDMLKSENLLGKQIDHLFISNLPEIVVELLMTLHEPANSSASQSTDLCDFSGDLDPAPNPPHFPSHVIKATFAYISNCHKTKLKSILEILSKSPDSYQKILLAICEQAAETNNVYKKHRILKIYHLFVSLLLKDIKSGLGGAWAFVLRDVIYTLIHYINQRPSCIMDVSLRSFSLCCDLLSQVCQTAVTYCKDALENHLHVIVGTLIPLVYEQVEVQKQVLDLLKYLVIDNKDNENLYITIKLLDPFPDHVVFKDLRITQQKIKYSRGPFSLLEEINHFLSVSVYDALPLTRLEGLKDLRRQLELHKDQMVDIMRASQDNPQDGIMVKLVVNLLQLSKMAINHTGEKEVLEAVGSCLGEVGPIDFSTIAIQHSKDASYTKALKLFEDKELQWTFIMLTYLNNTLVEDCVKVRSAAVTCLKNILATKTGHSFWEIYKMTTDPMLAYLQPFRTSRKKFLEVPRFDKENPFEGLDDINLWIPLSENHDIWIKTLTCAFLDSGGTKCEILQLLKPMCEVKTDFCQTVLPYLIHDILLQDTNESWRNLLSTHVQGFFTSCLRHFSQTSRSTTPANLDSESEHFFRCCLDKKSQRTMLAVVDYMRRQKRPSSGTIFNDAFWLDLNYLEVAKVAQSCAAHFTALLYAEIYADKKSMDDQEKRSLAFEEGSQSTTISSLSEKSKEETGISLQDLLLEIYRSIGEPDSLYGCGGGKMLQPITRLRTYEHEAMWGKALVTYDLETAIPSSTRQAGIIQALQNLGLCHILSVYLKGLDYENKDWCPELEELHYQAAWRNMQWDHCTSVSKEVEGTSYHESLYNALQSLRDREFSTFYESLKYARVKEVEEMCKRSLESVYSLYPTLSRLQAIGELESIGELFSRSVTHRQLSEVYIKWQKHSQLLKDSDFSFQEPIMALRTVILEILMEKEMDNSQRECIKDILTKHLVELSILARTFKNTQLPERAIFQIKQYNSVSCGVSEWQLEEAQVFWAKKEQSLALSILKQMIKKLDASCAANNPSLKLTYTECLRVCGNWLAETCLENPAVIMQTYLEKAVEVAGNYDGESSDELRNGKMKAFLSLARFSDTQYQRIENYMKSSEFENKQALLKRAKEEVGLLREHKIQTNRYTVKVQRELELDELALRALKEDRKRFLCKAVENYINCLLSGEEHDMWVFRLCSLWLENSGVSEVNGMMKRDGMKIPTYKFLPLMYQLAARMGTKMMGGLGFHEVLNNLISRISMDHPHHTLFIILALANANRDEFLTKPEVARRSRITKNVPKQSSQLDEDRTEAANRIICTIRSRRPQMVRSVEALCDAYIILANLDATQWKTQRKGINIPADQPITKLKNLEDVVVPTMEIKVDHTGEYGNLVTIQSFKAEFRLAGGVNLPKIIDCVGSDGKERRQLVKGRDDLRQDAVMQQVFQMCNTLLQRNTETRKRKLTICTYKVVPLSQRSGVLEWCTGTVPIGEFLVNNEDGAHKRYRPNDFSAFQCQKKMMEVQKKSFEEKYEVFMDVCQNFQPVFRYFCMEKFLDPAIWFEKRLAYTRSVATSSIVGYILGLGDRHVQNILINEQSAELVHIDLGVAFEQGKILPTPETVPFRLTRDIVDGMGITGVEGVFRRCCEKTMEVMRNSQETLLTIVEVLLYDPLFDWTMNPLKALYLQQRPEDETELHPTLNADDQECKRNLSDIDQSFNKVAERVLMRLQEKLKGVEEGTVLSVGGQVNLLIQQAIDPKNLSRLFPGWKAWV
row,Structure (SMILES),pIC50
1,"Cn1c(=O)n(C2CCOCC2)c2c3cc(-c4ccc(COCCN5CCC6(CC6)C5)nc4)ccc3nnc21 [Example 94, 8-(6-((2-(5-azaspiro[2.4]heptan-5-yl)ethoxy)methyl)pyridin-3-yl)-3-methyl-1-(tetrahydro-2H-pyran-4-yl)-1H-imidazo[4,5-c]cinnolin-2(3H)-one]",7.62

# Same assay, conditions: read-out: ATM IC50
row,Structure (SMILES),pIC50
1,"CO[C@H]1C[C@H](n2c(=O)n(C)c3nnc4ccc(-c5ccc(COCCN6CC7CC7C6)nc5)cc4c32)C1 (stereo partly drawn) [Example 169, 8-(6-((2-(3-azabicyclo[3.1.0]hexan-3-yl)ethoxy)methyl)pyridin-3-yl)-1-(trans-3-methoxycyclobutyl)-3-methyl-1H-imidazo[4,5-c]cinnolin-2(3H)-one]",7.38
2,"CC(C)n1c(=O)n(C)c2nnc3ccc(-c4ccc(COC5CC(N(C)C)C5)nc4)cc3c21 (stereo not drawn) [Example 14, 8-(6-((3-(dimethylamino)cyclobuto-xy)methyl)pyridin-3-yl)-1-isopropyl-3-methyl-1H-imidazo[4,5-c]cinnolin-2(3H)-one]",7.17
3,"CO[C@H]1CCN(CCO[C@@H](C)c2ccc(-c3ccc4nnc5c(c4c3)n(C(C)C)c(=O)n5C)cn2)C1 [Example 65, 1-isopropyl-8-(6-((S)-1-(2-((S)-3-methoxypyrrolidin-1-yl)ethoxy)ethyl)pyridin-3-yl)-3-methyl-1H-imidazo[4,5-c]cinnolin-2(3H)-one]",6.78
4,"C[C@@H](OCCN1CCCC1)c1ccc(-c2ccc3nnc4c(c3c2)n(C2CCOCC2)c(=O)n4C)cn1 [Example 121, (R)-3-methyl-8-(6-(1-(2-(pyrrolidin-1-yl)ethoxy)ethyl)pyridin-3-yl)-1-(tetrahydro-2H-pyran-4-yl)-1H-imidazo[4,5-c]cinnolin-2(3H)-one]",7.89
5,"CC(C)n1c(=O)n(C)c2nnc3ccc(-c4ccc([C@H](C)OCCN5CC6CC6C5)nc4)cc3c21 (stereo partly drawn) [Example 67, 8-(6-((1S)-1-(2-(3-azabicyclo[3.1.0]hexan-3-yl)ethoxy)ethyl)pyridin-3-yl)-1-isopropyl-3-methyl-1H-imidazo[4,5-c]cinnolin-2(3H)-one]",6.80
6,"CC(C)n1c(=O)n(C)c2nnc3ccc(-c4ccc(COCCN5CCC[C@H]5C)nc4)cc3c21 [Example 35, (R)-1-isopropyl-3-methyl-8-(6-((2-(2-methylpyrrolidin-1-yl)ethoxy)methyl)pyridin-3-yl)-1H-imidazo[4,5-c]cinnolin-2(3H)-one]",7.37
7,"CC(C)n1c(=O)n(C)c2nnc3ccc(-c4ccc(COCCN5CCOCC5)nc4)cc3c21 [Example 33, 1-isopropyl-3-methyl-8-(6-((2-morpholinoethoxy)methyl)pyridin-3-yl)-1H-imidazo[4,5-c]cinnolin-2(3H)-one]",7.24
8,"COC1CCN(CCOCc2ccc(-c3ccc4nnc5c(c4c3)n(C(C)C)c(=O)n5C)cn2)CC1 [Example 27, 1-isopropyl-8-(6-((2-(4-methoxypiperidin-1-yl)ethoxy)methyl)pyridin-3-yl)-3-methyl-1H-imidazo[4,5-c]cinnolin-2(3H)-one]",7.04
9,"CC(C)n1c(=O)n(C)c2nnc3ccc(-c4ccc(COCCN(C)C)nc4)cc3c21 [Example 2, 8-(6-((2-(dimethylamino)ethoxy)meth-yl)pyridin-3-yl)-1-isopropyl-3-methyl-1H-imidazo[4,5-c]cinnolin-2(3H)-one]",7.28
10,"Cn1c(=O)n(C2CCOCC2)c2c3cc(-c4ccc(COCCN5CC[C@H](OC(F)F)C5)nc4)ccc3nnc21 [Example 100, (S)-8-(6-((2-(3-(difluoromethoxy)pyrrolidin-1-yl)ethoxy)methyl)pyridin-3-yl)-3-methyl-1-(tetrahydro-2H-pyran-4-yl)-1H-imidazo[4,5-c]cinnolin-2(3H)-one]",7.80
11,"CC(C)n1c(=O)n(C)c2nnc3ccc(-c4ccc([C@H](C)OCCN5CCC(F)CC5)nc4)cc3c21 [Example 68, (S)-8-(6-(1-(2-(4-fluoropiperidin-1-yl)ethoxy)ethyl)pyridin-3-yl)-1-isopropyl-3-methyl-1H-imidazo[4,5-c]cinnolin-2(3H)-one]",6.80
12,"Cn1c(=O)n([C@H]2CCCOC2)c2c3cc(-c4ccc(COCCN5CCC(F)CC5)nc4)ccc3nnc21 [Example 182, (S)-8-(6-((2-(4-fluoropiperidin-1-yl)ethoxy)methyl)pyridin-3-yl)-3-methyl-1-(tetrahydro-2H-pyran-3-yl)-1H-imidazo[4,5-c]cinnolin-2(3H)-one]",7.68
13,"CC(C)n1c(=O)n(C)c2nnc3ccc(-c4ccc([C@@H](C)OCCN5CCC(OC(F)(F)F)CC5)nc4)cc3c21 [Example 58, (R)-1-isopropyl-3-methyl-8-(6-(1-(2-(4-(trifluoromethoxy)piperidin-1-yl)ethoxy)ethyl)pyridin-3-yl)-1H-imidazo[4,5-c]cinnolin-2(3H)-one]",8.85
14,"CC(C)n1c(=O)n(C)c2nnc3ccc(-c4ccc(COCC5CCN(C)C5)nc4)cc3c21 (stereo not drawn) [Example 20, 1-isopropyl-3-methyl-8-(6-(((1-methylpyrrolidin-3-yl)methoxy)methyl)pyridin-3-yl)-1H-imidazo[4,5-c]cinnolin-2(3H)-one]",7.29
15,"C[C@@H](OCCN1CCC(C)(C)C1)c1ccc(-c2ccc3nnc4c(c3c2)n(C2CCOCC2)c(=O)n4C)cn1 [Example 111, (R)-8-(6-(1-(2-(3,3-dimethylpyrrolidin-1-yl)ethoxy)ethyl)pyridin-3-yl)-3-methyl-1-(tetrahydro-2H-pyran-4-yl)-1H-imidazo[4,5-c]cinnolin-2(3H)-one]",7.92
16,"C[C@@H](OCCN1CCC(C)(C)CC1)c1ccc(-c2cc3c(cc2F)nnc2c3n(C3CCOCC3)c(=O)n2C)cn1 [Example 149, (R)-8-(6-(1-(2-(4,4-dimethylpiperidin-1-yl)ethoxy)ethyl)pyridin-3-yl)-7-fluoro-3-methyl-1-(tetrahydro-2H-pyran-4-yl)-1H-imidazo[4,5-c]cinnolin-2(3H)-one]",7.82
17,"CC(C)n1c(=O)n(C)c2nnc3ccc(-c4ccc(COCCN5CC[C@@H](F)C5)nc4)cc3c21 [Example 28, (R)-8-(6-((2-(3-fluoropyrrolidin-1-yl)ethoxy)methyl)pyridin-3-yl)-1-isopropyl-3-methyl-1H-imidazo[4,5-c]cinnolin-2(3H)-one]",7.09
18,"CC(C)n1c(=O)n(C)c2nnc3ccc(-c4ccc([C@@H](C)OCCN5CCC(C)(C#N)C5)nc4)cc3c21 (stereo partly drawn) [Example 90, 1-(2-((R)-1-(5-(1-isopropyl-3-methyl-2-oxo-2,3-dihydro-1H-imidazo[4,5-c]cinnolin-8-yl)pyridin-2-yl)ethoxy)ethyl)-3-methylpyrrolidine-3-carbonitrile]",7.96
19,"Cn1c(=O)n(C2CCOCC2)c2c3cc(-c4ccc(COCCN5CC6CC6C5)nc4)ccc3nnc21 (stereo not drawn) [Example 98, 8-(6-((2-(3-azabicyclo[3.1.0]hexan-3-yl)ethoxy)methyl)pyridin-3-yl)-3-methyl-1-(tetrahydro-2H-pyran-4-yl)-1H-imidazo[4,5-c]cinnolin-2(3H)-one]",7.21
20,"CC(C)n1c(=O)n(C)c2nnc3ccc(-c4ccc(COCCCN5CC6CC6C5)nc4)cc3c21 (stereo not drawn) [Example 12, 8-(6-((3-(3-azabicyclo[3.1.0]hexan-3-yl)propoxy)methyl)pyridin-3-yl)-1-isopropyl-3-methyl-1H-imidazo[4,5-c]cinnolin-2(3H)-one]",7.33

# Reference: patent publication US20240207263A1, “SELECTIVE MODULATORS OF ATAXIA TELA[…] (ATM) KINASE AND USES THEREOF” (priority 2021, published 2024)
